Measurements from the supplement of paper PMC5908809.

Columns and labels:
NK-92 (IL-2 2.5 ng/mL) [1] = assay: drug sensitivity score (DSS) (DSS units); higher = more sensitive; extreme values may be limits of the assay; details: 72 h
KAI3 (IL-2 2.5 ng/mL) [2] = assay: as above; details: 72 h
YT (IL-2 2.5 ng/mL) [3] = assay: as above; details: 72 h
NKL (IL-2 2.5 ng/mL) [4] = assay: as above; details: 72 h
[5] = test system: normal primary NK cells, pool 1 (3 donors) (IL-2 2.5 ng/mL); assay: as above; details: 72 h
[6] = test system: normal primary NK cells, pool 1 (3 donors), resting (IL-2 0 ng/mL); assay: as above; details: 72 h
[7] = test system: normal primary NK cells, pool 3 (3 donors) (IL-2 2.5 ng/mL); assay: as above; details: 72 h
IMC-1 (IL-2 20 ng/mL) [8] = assay: as above; details: 72 h
DERL-7 (IL-2 2.5 ng/mL) [9] = assay: as above; details: 72 h
NK-YS (IL-2 2.5 ng/mL) [10] = assay: as above; details: 72 h
KHYG-1 (IL-2 2.5 ng/mL) [11] = assay: as above; details: 72 h
[12] = test system: normal primary NK cells, pool 2 (3 donors) (IL-2 2.5 ng/mL); assay: as above; details: 72 h
SNK-6 (IL-2 2.5 ng/mL) [13] = assay: as above; details: 72 h
[14] = test system: normal NK cells expanded with K562-aAPC; assay: percent inhibition of viability; higher = more inhibition; details: 72 h, IL-2 2.5 ng/mL
Protocol: (§1)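 Drug sensitivity and resistance testing on K562-aAPC-expanded normal NK cells: 5 concentrations (10-fold steps over a 10,000-fold range), 72 h at 37 °C, viability by CellTiter-Glo normalised to DMSO and benzethonium chloride controls; DSS from the fitted curve.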

[15] = test system: normal NK cells expanded with K562-aAPC; assay: drug sensitivity score (DSS) (DSS units); higher = more sensitive; extreme values may be limits of the assay; details: 72 h; IL-2 2.5 ng/mL
Protocol: as §1

NK-92 (IL-2 2.5 ng/mL) [16] = assay: percent inhibition of viability; higher = more inhibition; details: 72 h
KAI3 (IL-2 2.5 ng/mL) [17] = assay: as above; details: 72 h
YT (IL-2 2.5 ng/mL) [18] = assay: as above; details: 72 h
NKL (IL-2 2.5 ng/mL) [19] = assay: as above; details: 72 h
[20] = test system: normal primary NK cells, pool 1 (3 donors) (IL-2 2.5 ng/mL); assay: as above; details: 72 h
[21] = test system: normal primary NK cells, pool 1 (3 donors), resting (IL-2 0 ng/mL); assay: as above; details: 72 h
[22] = test system: normal primary NK cells, pool 3 (3 donors) (IL-2 2.5 ng/mL); assay: as above; details: 72 h
IMC-1 (IL-2 20 ng/mL) [23] = assay: as above; details: 72 h
DERL-7 (IL-2 2.5 ng/mL) [24] = assay: as above; details: 72 h
NK-YS (IL-2 2.5 ng/mL) [25] = assay: as above; details: 72 h
KHYG-1 (IL-2 2.5 ng/mL) [26] = assay: as above; details: 72 h
[27] = test system: normal primary NK cells, pool 2 (3 donors) (IL-2 2.5 ng/mL); assay: as above; details: 72 h
SNK-6 (IL-2 2.5 ng/mL) [28] = assay: as above; details: 72 h

Cn1nnc2c(C(N)=O)ncn2c1=O [Temozolomide] (max concentration tested 100000 nM)
Details	drug sensitivity score
DERL-7 (IL-2 2.5 ng/mL) [9]	0
IMC-1 (IL-2 20 ng/mL) [8]	6.93
KAI3 (IL-2 2.5 ng/mL) [2]	0.01
KHYG-1 (IL-2 2.5 ng/mL) [11]	0
NK-92 (IL-2 2.5 ng/mL) [1]	2.63
NK-YS (IL-2 2.5 ng/mL) [10]	1.21
NKL (IL-2 2.5 ng/mL) [4]	4.31
SNK-6 (IL-2 2.5 ng/mL) [13]	18
YT (IL-2 2.5 ng/mL) [3]	0
[5]	0
[6]	0
[7]	1.03
[12]	0.32
[15]	0.02

percent inhibition of viability [%]
Details	10 nM	100 nM	1000 nM	10000 nM	100000 nM
DERL-7 (IL-2 2.5 ng/mL) [24]	-3.81	2.52	-0.21	4.75	-1.49
IMC-1 (IL-2 20 ng/mL) [23]	1.34	-6.01	5.36	17.9	74.4
KAI3 (IL-2 2.5 ng/mL) [17]	-11.8	-10.3	-9.47	-11.7	12.9
KHYG-1 (IL-2 2.5 ng/mL) [26]	-3.41	-4.13	0.86	0.71	8.74
NK-92 (IL-2 2.5 ng/mL) [16]	-7.14	-7.33	-5.28	7.55	32.4
NK-YS (IL-2 2.5 ng/mL) [25]	-2.59	-6.14	2.38	3.13	22.3
NKL (IL-2 2.5 ng/mL) [19]	-9.55	-19.8	-10.2	4.85	65.2
SNK-6 (IL-2 2.5 ng/mL) [28]	-0.07	8.23	35.2	72.8	88.5
YT (IL-2 2.5 ng/mL) [18]	-4.31	-3.78	-0.54	-3.29	0.79
[14]	0.11	-2.44	4.25	0.95	10.9
[20]	-7.39	2.46	-6.83	-0.09	5.41
[21]	-13.7	-5.7	-14.4	-9.04	-7.4
[22]	-14.7	-11.8	-7.32	6.58	17.2
[27]	-14.2	-9.61	-8.15	11.5	10

O=C1CCC(N2C(=O)c3ccccc3C2=O)C(=O)N1 (configuration not stated) [Thalidomide] (max concentration tested 10000 nM)
Details	drug sensitivity score
DERL-7 (IL-2 2.5 ng/mL) [9]	0
IMC-1 (IL-2 20 ng/mL) [8]	0.03
KAI3 (IL-2 2.5 ng/mL) [2]	0.11
KHYG-1 (IL-2 2.5 ng/mL) [11]	0.01
NK-92 (IL-2 2.5 ng/mL) [1]	0.43
NK-YS (IL-2 2.5 ng/mL) [10]	0.86
NKL (IL-2 2.5 ng/mL) [4]	0.91
SNK-6 (IL-2 2.5 ng/mL) [13]	0
YT (IL-2 2.5 ng/mL) [3]	1.05
[5]	0
[6]	0
[7]	0
[12]	0
[15]	0.4

percent inhibition of viability [%]
Details	1 nM	10 nM	100 nM	1000 nM	10000 nM
DERL-7 (IL-2 2.5 ng/mL) [24]	-4.35	1.66	0.7	-4.56	-10.4
IMC-1 (IL-2 20 ng/mL) [23]	-2.34	-2.83	3.91	5.3	12
KAI3 (IL-2 2.5 ng/mL) [17]	-9.63	-11.1	-3.59	-3.95	14.6
KHYG-1 (IL-2 2.5 ng/mL) [26]	-4.12	-6.62	0.67	6.18	10.3
NK-92 (IL-2 2.5 ng/mL) [16]	-15.9	-8.74	-9.71	7.78	12.7
NK-YS (IL-2 2.5 ng/mL) [25]	-5.98	-8.88	-3.38	8.1	15.2
NKL (IL-2 2.5 ng/mL) [19]	-18.5	-7.52	-3.52	13.7	11.1
SNK-6 (IL-2 2.5 ng/mL) [28]	-14.3	8.65	-18.4	-31.5	-27.8
YT (IL-2 2.5 ng/mL) [18]	-9.26	-7.23	-5.25	-0.15	26.5
[14]	-14.8	-5.18	-6.96	6.59	12.7
[20]	0.86	-2.62	18.8	-1.53	5.13
[21]	6	-5.13	20	-1.84	-5.2
[22]	-10.6	-12.8	-2.32	1.72	4.5
[27]	-7.68	-2.29	0.16	8.57	7.78

Cn1cncc1[C@@](N)(c1ccc(Cl)cc1)c1ccc2c(c1)c(-c1cccc(Cl)c1)cc(=O)n2C [Tipifarnib] (max concentration tested 10000 nM)
Details	drug sensitivity score
DERL-7 (IL-2 2.5 ng/mL) [9]	18.6
IMC-1 (IL-2 20 ng/mL) [8]	7.09
KAI3 (IL-2 2.5 ng/mL) [2]	19.1
KHYG-1 (IL-2 2.5 ng/mL) [11]	28.6
NK-92 (IL-2 2.5 ng/mL) [1]	17.5
NK-YS (IL-2 2.5 ng/mL) [10]	22.5
NKL (IL-2 2.5 ng/mL) [4]	14.4
SNK-6 (IL-2 2.5 ng/mL) [13]	20.7
YT (IL-2 2.5 ng/mL) [3]	16.2
[5]	10.5
[6]	16.3
[7]	6.12
[12]	7.58
[15]	11.9

percent inhibition of viability [%]
Details	1 nM	10 nM	100 nM	1000 nM	10000 nM
DERL-7 (IL-2 2.5 ng/mL) [24]	1.19	15	50.5	55.8	82.4
IMC-1 (IL-2 20 ng/mL) [23]	-0.42	7.67	12.7	14.3	84.9
KAI3 (IL-2 2.5 ng/mL) [17]	6.75	19.1	47.3	58.3	85.1
KHYG-1 (IL-2 2.5 ng/mL) [26]	-2.81	24	75.8	83	107
NK-92 (IL-2 2.5 ng/mL) [16]	-0.73	9.6	37.6	61.4	109
NK-YS (IL-2 2.5 ng/mL) [25]	-3.65	20.6	59.3	66.9	90
NKL (IL-2 2.5 ng/mL) [19]	-4.94	-3.92	26.4	59.5	92.4
SNK-6 (IL-2 2.5 ng/mL) [28]	-6.05	-1.97	53.1	67.8	79
YT (IL-2 2.5 ng/mL) [18]	3.74	11.7	34.3	55.4	106
[14]	-0.6	11.6	28.5	39.2	75.8
[20]	5.62	11.4	32.4	24	96.1
[21]	-0.67	17.8	34.2	56.4	93
[22]	-5.22	13.6	17.7	17.1	53.4
[27]	-6.39	6.93	13.5	23.8	83.5
